Assay [1] deals with Tyrosine-protein kinase Fyn (Homo sapiens) (UniProt P06241). The following applies: at 10 µM.
The target in assay [2] is Serine/threonine-protein kinase PAK 3 (Homo sapiens) (UniProt O75914). The assay is described as follows: Selectivity interaction (KinaseProfiler screening (Millipore)) EUB0000601a PAK3. The following applies: at 3 µM.
Assay [3] concerns the target RAC-beta serine/threonine-protein kinase (Homo sapiens) (UniProt P31751). The assay is described as follows: Selectivity interaction (Millipore kinase profiler) EUB0000124b AKT2. The conditions noted are these: at 10 µM.
Assay [4] has as its target NT-3 growth factor receptor (Homo sapiens, UniProt Q16288). The assay is described as follows: Selectivity interaction (KinomeScan (DiscoverX)) EUB0000695a NTRK3. The conditions noted are these: at 100 nM.
Assay [5] has as its target Homeodomain-interacting protein kinase 3 (Homo sapiens, UniProt Q9H422). Kind of assay: Selectivity interaction (KinomeScan (DiscoverX)) EUB0000045b HIPK3.
For assay [6], the target named is Histone-lysine N-methyltransferase ASH1L (Homo sapiens) (UniProt Q9NR48). The following applies: at 1 µM.
Assay [7] addresses T1, Serine/threonine-protein kinase haspin (Homo sapiens) (UniProt Q8TF76).
T1 sequence (whole entry): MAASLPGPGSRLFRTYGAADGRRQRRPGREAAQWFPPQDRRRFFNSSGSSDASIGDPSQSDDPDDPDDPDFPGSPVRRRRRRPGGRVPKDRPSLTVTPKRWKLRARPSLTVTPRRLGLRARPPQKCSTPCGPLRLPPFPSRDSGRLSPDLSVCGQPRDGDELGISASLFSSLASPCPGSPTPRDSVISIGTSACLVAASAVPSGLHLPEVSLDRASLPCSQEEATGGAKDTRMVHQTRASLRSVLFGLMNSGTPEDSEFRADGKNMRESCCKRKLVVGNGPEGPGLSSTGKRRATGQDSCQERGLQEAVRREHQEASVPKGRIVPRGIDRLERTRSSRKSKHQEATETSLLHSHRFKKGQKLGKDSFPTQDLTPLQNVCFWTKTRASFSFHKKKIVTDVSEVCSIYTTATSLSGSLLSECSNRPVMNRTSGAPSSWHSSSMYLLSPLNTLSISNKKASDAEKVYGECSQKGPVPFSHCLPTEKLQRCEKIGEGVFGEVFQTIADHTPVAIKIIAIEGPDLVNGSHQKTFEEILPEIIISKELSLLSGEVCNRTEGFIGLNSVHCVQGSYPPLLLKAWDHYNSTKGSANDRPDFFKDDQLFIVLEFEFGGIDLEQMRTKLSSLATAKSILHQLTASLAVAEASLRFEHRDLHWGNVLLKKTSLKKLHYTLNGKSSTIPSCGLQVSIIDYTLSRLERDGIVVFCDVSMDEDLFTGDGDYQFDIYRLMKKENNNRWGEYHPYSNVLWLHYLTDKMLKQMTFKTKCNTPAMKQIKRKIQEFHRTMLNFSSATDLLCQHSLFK
Kind of assay: Selectivity interaction (KinomeScan (DiscoverX)) EUB0000229b GSG2. The conditions noted are these: at 10 µM.

Assay [8] has as its target Ribosomal protein S6 kinase alpha-2 (Homo sapiens) (UniProt Q15349). Kind of assay: Selectivity interaction (Kinome Scan (DiscoverX)) EUB0000229b RPS6KA2. The conditions noted are these: at 10 µM.
In assay [9] the target is Dual specificity testis-specific protein kinase 1 (Homo sapiens) (UniProt Q15569). The assay is described as follows: Selectivity interaction (KinomeScan (DiscoverX)) EUB0000229b TESK1. The following applies: at 10 µM.
Assay [10] deals with Sodium-dependent dopamine transporter (Homo sapiens, UniProt Q01959). Kind of assay: Selectivity interaction (Dopamine Transporter assay, human recombinant ) EUB0000877a SLC6A3.
Sodium-dependent dopamine transporter, sequence (Q01959 whole entry): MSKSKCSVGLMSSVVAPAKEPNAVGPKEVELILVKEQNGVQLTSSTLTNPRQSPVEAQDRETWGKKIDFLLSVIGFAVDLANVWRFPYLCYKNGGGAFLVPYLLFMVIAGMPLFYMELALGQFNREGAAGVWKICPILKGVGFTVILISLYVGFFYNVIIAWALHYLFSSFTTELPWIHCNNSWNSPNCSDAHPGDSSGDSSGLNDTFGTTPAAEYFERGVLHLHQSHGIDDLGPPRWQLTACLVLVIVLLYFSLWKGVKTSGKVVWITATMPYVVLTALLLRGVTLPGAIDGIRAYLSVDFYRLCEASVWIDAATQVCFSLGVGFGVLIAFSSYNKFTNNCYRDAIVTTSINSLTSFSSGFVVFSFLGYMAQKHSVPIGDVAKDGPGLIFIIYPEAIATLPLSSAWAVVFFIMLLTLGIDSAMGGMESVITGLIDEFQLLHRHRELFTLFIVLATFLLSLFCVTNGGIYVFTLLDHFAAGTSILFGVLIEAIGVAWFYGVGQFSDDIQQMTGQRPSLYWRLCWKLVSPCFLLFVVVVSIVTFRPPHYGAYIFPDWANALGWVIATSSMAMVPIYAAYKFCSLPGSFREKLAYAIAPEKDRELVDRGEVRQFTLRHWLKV
The target in assay [11] is Mitogen-activated protein kinase 14 (Homo sapiens, UniProt Q16539). The assay is described as follows: Selectivity interaction (KinomeScan (DiscoverX)) EUB0000595a MAPK14. The following applies: at 10 µM.
Mitogen-activated protein kinase 14, sequence (Q16539 whole entry): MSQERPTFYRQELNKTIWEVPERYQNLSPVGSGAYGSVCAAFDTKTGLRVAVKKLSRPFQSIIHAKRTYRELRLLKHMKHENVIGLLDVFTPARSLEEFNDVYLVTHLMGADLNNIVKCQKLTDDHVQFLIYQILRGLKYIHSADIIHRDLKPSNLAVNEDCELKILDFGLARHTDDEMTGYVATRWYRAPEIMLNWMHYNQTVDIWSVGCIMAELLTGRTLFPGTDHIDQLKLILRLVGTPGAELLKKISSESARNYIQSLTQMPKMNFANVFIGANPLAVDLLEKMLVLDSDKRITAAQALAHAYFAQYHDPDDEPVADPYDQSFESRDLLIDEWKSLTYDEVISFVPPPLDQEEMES
The target in assay [12] is T2, Serine/threonine-protein kinase TAO3 (Homo sapiens) (UniProt Q9H2K8).
T2 sequence (whole entry): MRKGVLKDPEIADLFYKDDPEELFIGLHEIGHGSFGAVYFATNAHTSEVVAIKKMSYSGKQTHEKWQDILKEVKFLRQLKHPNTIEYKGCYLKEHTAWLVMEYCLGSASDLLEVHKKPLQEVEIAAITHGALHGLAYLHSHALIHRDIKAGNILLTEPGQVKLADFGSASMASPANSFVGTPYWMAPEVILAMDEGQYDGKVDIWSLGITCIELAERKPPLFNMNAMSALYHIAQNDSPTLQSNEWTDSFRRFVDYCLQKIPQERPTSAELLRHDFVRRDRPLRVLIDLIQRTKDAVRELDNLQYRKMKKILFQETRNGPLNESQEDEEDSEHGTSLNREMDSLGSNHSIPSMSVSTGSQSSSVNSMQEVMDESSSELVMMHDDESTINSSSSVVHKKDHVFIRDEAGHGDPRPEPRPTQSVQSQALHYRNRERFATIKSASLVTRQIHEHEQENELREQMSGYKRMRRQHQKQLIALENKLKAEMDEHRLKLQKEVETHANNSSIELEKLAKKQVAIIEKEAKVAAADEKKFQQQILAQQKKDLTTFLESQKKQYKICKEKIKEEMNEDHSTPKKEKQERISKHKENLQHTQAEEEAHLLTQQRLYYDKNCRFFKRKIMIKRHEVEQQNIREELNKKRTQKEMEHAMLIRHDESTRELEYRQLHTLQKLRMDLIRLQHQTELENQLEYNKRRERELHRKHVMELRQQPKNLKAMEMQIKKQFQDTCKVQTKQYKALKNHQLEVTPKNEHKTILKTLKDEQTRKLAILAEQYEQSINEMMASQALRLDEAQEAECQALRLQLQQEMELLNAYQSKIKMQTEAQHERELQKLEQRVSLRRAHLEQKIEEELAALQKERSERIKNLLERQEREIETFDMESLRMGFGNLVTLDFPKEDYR
The assay is described as follows: Selectivity interaction (ActivX KiNativ screen (ex vivo kinase selectivity in human PBMCs)) EUB0001619a TAOK3. The format is cell-based. The conditions noted are these: PBMC, at 1 µM.

Homeodomain-interacting protein kinase 3, sequence (Q9H422 whole entry, looked up): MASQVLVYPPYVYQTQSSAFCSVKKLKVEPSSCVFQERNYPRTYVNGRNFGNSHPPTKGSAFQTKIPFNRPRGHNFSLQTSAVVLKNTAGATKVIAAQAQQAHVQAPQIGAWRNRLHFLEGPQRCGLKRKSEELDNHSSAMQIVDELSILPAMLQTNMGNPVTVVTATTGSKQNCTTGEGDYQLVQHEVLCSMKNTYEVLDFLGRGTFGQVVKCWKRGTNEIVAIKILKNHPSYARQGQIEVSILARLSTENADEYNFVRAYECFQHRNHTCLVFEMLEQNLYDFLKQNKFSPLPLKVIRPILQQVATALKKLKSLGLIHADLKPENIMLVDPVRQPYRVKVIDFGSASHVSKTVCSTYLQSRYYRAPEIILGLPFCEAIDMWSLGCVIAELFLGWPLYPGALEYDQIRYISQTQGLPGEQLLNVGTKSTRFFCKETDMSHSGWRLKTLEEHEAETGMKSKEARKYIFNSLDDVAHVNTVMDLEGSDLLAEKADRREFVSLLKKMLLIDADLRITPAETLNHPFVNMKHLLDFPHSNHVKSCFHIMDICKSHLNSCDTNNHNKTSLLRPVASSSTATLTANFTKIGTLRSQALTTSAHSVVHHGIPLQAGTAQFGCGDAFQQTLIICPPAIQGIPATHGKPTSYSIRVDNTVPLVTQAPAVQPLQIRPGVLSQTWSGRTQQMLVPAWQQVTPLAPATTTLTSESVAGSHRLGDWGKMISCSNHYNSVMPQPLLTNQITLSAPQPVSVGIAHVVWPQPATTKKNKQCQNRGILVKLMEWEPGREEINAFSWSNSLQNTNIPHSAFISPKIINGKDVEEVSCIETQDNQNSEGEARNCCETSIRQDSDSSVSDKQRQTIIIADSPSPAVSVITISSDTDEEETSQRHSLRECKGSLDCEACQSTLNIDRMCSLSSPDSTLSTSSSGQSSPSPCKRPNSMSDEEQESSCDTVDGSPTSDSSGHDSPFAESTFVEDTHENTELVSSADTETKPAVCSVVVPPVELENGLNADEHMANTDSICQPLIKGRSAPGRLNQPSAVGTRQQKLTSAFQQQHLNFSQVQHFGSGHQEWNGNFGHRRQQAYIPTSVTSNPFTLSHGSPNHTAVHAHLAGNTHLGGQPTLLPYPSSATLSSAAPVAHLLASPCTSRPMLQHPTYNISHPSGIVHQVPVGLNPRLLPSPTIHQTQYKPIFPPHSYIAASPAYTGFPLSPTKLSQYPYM
Tyrosine-protein kinase Fyn (Homo sapiens), sequence (P06241 2-537 limits assumed): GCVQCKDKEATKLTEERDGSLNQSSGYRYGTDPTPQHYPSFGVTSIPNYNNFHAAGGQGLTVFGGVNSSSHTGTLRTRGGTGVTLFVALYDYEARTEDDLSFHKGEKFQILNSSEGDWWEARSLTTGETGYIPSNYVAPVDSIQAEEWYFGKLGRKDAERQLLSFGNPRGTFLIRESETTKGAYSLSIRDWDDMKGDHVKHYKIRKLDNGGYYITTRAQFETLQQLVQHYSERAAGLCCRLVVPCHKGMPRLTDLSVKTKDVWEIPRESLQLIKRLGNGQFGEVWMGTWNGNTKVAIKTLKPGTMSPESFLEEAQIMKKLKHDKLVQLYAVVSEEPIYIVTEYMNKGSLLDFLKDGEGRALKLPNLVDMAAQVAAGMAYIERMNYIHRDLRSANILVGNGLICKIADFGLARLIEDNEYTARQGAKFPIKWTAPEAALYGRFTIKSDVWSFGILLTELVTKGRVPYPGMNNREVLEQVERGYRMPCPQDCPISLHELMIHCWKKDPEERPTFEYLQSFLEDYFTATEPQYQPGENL
NT-3 growth factor receptor, sequence (Q16288 32-839 limits assumed): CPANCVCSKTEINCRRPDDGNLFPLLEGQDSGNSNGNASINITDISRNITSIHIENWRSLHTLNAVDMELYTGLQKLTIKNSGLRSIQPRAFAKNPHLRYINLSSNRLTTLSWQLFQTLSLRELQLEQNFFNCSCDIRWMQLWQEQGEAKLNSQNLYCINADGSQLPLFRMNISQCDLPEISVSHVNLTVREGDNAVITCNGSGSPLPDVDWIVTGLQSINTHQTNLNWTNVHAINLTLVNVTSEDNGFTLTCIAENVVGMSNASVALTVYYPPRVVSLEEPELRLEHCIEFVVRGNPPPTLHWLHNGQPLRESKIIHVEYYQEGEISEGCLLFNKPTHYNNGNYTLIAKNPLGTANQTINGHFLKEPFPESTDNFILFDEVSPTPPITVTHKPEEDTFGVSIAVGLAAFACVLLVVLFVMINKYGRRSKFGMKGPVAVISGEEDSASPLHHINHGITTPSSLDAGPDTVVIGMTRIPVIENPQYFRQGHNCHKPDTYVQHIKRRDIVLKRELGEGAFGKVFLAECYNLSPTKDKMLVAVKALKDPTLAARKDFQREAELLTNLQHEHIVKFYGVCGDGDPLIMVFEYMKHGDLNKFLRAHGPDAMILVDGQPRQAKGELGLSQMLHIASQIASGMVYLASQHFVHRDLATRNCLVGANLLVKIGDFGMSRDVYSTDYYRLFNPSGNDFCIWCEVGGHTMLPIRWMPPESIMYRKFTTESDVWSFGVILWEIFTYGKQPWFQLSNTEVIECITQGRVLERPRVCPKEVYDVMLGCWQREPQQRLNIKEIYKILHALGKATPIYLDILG
RAC-beta serine/threonine-protein kinase (Homo sapiens), sequence (P31751 whole entry): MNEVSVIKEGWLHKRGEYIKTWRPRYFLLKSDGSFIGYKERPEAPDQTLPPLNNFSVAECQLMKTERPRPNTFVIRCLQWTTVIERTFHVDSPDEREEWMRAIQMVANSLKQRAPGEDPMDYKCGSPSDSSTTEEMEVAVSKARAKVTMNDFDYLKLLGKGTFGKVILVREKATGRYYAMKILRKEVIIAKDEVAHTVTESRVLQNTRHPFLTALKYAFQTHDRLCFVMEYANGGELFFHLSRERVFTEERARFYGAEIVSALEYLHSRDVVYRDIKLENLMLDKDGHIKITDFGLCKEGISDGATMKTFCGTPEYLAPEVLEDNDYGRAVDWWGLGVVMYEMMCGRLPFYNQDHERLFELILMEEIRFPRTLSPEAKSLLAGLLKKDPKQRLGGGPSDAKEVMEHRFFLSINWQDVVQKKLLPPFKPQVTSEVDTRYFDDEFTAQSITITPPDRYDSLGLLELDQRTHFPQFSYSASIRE
Ribosomal protein S6 kinase alpha-2 (Homo sapiens), sequence (Q15349 whole entry): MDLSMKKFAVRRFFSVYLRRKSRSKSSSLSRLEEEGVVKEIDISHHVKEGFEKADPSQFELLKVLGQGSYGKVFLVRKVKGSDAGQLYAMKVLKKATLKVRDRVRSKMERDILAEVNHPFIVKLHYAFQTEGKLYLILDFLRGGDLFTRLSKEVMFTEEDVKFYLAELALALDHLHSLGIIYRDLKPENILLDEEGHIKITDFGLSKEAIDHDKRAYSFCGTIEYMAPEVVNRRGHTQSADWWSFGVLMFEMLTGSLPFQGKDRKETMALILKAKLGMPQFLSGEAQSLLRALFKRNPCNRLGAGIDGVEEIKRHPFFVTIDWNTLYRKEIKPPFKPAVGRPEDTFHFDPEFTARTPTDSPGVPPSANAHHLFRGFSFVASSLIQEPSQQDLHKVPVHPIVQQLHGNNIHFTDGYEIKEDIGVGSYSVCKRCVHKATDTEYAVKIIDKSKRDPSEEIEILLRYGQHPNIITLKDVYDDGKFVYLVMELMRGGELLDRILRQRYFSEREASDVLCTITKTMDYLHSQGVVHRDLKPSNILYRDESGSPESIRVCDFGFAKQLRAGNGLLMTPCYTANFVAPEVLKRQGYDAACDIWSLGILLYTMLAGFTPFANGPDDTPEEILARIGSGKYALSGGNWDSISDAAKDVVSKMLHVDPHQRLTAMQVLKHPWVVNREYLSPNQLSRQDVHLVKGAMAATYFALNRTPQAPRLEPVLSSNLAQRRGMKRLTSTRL

For the compound `Cc1cc([C@@H](C)Nc2ccccc2C(=O)O)c2nc(N3CCOCC3)cc(=O)n2c1` [AZD-6482], the % of control in [1] was 100%.
In turn, `CCc1cc(Nc2nccc(-c3c(-c4ccc(OC)c(C(=O)Nc5c(F)cccc5F)c4)nc4ccccn34)n2)c(OC)cc1N1CCC(N2CCN(S(C)(=O)=O)CC2)CC1` had a % of inhibition in assay [2] of 53%.
`CC(=O)Nc1cccc(-n2c(=O)n(C3CC3)c(=O)c3c(Nc4ccc(I)cc4F)n(C)c(=O)c(C)c32)c1`: the % of control in assay [3] stood at 103%.
`Cc1cc(F)c(C(=O)Nc2cccc(-c3nncn3C(C)C)n2)cc1-n1cnc(C2CC2)c1`: the % of control in assay [4] stood at 86%.
On to `C=CC(=O)Nc1cc(-n2c(=O)ccc3cnc4ccc(-c5ccc(NS(C)(=O)=O)cc5)cc4c32)ccc1C`, for which the % of control in assay [5] (at 1 µM) and in assay [5] (at 10 µM) was 100% throughout.
Regarding `CNCCN1CCC(c2cc(CN(C)C(=O)c3cccc(Oc4ccccc4)c3)ccn2)CC1`, the % activity in [6] is > 90%.
Turning to `COc1cc(N(C)c2ccnc3ccc(C(F)(F)F)cc23)cc(OC)c1OC`, the % binding in assay [7] amounted to 43%; in assay [8], 74%; in assay [9], 90%.
As a reminder, the IC50 is the concentration at which inhibition is half-maximal. Consider `CCC(=O)N1CC[C@H](Nc2ncnc3c2CN(c2cnc(OC)c(C(F)(F)F)c2)CC3)C1` [LENIOLISIB], for which, in [10], the IC50 is > 30 µM.
On to `COCC(=O)NC/C=C/c1ccc2ncnc(Nc3ccc(Oc4ccc(C)nc4)c(C)c3)c2c1` [CP-724714], for which the % of control in assay [11] is 100%.
For the compound `N#Cc1cccc(-c2c[nH]c3ncnc(N4CCOCC4)c23)c1`, the % of inhibition in assay [12] worked out at 6%.

Source of the values: ChEMBL document CHEMBL5465560, “Selectivity Literature for EUbOPEN Chemogenomic Library” (2024).
